According to ChEMBL document CHEMBL1649104, “Benzofuran Derivatives as Potent, Orally Active S1P1 Receptor Agonists: A Preclinical Lead Molecule for MS” (ACS Med Chem Lett, 2011):
Each block holds one compound with its values, some of them ahead of it. Active and inactive are the calls of the source. No cut-off for these calls is given here.

Legend:
[1] = Terminal half life in cynomolgus monkey at 1 mg/kg, iv or 5 mg/kg, po; type: ADME, organism-based, Macaca fascicularis; conditions: in vivo, read-out: beta t1/2 (converted)
[2] = Volume of distribution at steady state in cynomolgus monkey at 1 mg/kg, iv or 5 mg/kg, po; type: ADME, organism-based, Macaca fascicularis; conditions: in vivo, read-out: Vdss
[3] = Induction of Cytochrome P450; type: ADME
[4] = Toxicity in rat assessed as No observed adverse effect level by 4 day repeated dose toxicity study; type: organism-based; conditions: in vivo
[5] = Volume of distribution at steady state in Sprague-Dawley rat at 1 mg/kg, iv or 3 mg/kg, po; type: ADME, organism-based; conditions: in vivo, read-out: Vdss
[6] = molecular target: T1, Sphingosine 1-phosphate receptor 1 (Homo sapiens, UniProt P21453); test: Induction of human GFP-tagged chimeric S1P1R internalization in human U2Os cells by fluorescence microscopy; type: cell-based
T1 sequence (P21453 whole entry): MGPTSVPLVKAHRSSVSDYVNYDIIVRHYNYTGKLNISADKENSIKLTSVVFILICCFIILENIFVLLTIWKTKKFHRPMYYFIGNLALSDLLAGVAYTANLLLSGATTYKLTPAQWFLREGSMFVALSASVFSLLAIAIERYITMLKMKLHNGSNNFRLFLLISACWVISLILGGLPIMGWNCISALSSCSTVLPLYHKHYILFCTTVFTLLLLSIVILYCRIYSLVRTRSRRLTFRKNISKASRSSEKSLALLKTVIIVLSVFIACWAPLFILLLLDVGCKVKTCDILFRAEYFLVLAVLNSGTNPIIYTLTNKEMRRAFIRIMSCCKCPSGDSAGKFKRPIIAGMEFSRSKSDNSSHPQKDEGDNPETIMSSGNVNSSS

[7] = Oral bioavailability in Beagle dog 3 mg/kg; type: ADME, organism-based, Canis lupus familiaris; conditions: in vivo
Rattus norvegicus [8] = test: Toxicity in telemetered Sprague-Dawley rat assessed as increase in mean arterial pressure at 20 mg/kg, po measured 4 to 6 hrs post dose; type: organism-based, Artery; set-up: dose 20 mg/kg, route oral; conditions: in vivo
Rattus norvegicus [9] = test: Toxicity in telemetered Sprague-Dawley rat assessed as increase in mean arterial pressure at 40 mg/kg, po measured 4 to 6 hrs post dose; type: organism-based, Artery; set-up: dose 40 mg/kg, route oral; conditions: in vivo
Homo sapiens = species on record: Homo sapiens; test: Selectivity for human S1P1R over human S1P3R
[10] = Oral bioavailability in Sprague-Dawley rat 3 mg/kg; type: ADME, organism-based; conditions: in vivo
Rattus norvegicus [11] = test: Lymphopenic activity in Lewis rat assessed as reduction in blood lymphocyte counts at 3 mg/kg, po measured 24 hrs post dose; type: functional
[12] = Mean residence time in Beagle dog at 2 mg/kg, iv or 3 mg/kg, po; type: ADME, organism-based, Canis lupus familiaris; conditions: in vivo
[13] = Terminal half life in Sprague-Dawley rat at 1 mg/kg, iv or 3 mg/kg, po; type: ADME, organism-based; conditions: in vivo, read-out: beta t1/2 (converted)
[14] = Clearance in Sprague-Dawley rat at 1 mg/kg, iv or 3 mg/kg, po; type: ADME, organism-based; conditions: in vivo
Rattus norvegicus [15] = test: Lymphopenic activity in Lewis rat assessed as reduction in blood lymphocyte counts at 1 mg/kg, po measured 24 hrs post dose; type: functional
Rattus norvegicus [16] = test: Toxicity in telemetered Sprague-Dawley rat assessed as effect on heart rate at 40 mg/kg, po; type: organism-based; set-up: dose 40 mg/kg, route oral; conditions: in vivo
[17] = Clearance in Beagle dog at 2 mg/kg, iv or 3 mg/kg, po; type: ADME, organism-based, Canis lupus familiaris; conditions: in vivo
[18] = Clearance in cynomolgus monkey at 1 mg/kg, iv or 5 mg/kg, po; type: ADME, organism-based, Macaca fascicularis; conditions: in vivo
[19] = Inhibition of Cytochrome P450; type: ADME
[20] = Metabolic stability in human liver microsomes assessed as half life; type: ADME, Microsome
Rattus norvegicus [21] = test: Lymphopenic activity in po dosed Lewis rat assessed as reduction in blood lymphocyte counts measured 24 hrs post dose; type: functional, organism-based
[22] = Oral bioavailability in cynomolgus monkey 5 mg/kg; type: ADME, organism-based, Macaca fascicularis; conditions: in vivo
[23] = molecular target: T2, Sphingosine 1-phosphate receptor 3 (Homo sapiens, UniProt Q99500); test: Agonist activity at human S1P3R expressed in CHO cells by Ca(2+) mobilization assay; type: functional, cell-based
T2 sequence (Q99500 whole entry): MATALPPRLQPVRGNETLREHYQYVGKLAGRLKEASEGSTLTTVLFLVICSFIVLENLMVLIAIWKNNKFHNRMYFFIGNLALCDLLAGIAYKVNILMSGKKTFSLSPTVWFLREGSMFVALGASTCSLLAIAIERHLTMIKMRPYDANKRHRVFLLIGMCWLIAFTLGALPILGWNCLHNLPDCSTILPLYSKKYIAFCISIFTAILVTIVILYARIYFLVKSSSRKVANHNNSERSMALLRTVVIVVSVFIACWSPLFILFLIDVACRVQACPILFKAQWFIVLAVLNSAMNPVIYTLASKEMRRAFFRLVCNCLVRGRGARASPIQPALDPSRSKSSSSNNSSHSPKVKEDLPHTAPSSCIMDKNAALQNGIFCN

[24] = molecular target: Voltage-gated inwardly rectifying potassium channel KCNH2 (Homo sapiens, UniProt Q12809); test: Inhibition of human ERG by patch-clamp method
Sequence of Voltage-gated inwardly rectifying potassium channel KCNH2 (Q12809 whole entry): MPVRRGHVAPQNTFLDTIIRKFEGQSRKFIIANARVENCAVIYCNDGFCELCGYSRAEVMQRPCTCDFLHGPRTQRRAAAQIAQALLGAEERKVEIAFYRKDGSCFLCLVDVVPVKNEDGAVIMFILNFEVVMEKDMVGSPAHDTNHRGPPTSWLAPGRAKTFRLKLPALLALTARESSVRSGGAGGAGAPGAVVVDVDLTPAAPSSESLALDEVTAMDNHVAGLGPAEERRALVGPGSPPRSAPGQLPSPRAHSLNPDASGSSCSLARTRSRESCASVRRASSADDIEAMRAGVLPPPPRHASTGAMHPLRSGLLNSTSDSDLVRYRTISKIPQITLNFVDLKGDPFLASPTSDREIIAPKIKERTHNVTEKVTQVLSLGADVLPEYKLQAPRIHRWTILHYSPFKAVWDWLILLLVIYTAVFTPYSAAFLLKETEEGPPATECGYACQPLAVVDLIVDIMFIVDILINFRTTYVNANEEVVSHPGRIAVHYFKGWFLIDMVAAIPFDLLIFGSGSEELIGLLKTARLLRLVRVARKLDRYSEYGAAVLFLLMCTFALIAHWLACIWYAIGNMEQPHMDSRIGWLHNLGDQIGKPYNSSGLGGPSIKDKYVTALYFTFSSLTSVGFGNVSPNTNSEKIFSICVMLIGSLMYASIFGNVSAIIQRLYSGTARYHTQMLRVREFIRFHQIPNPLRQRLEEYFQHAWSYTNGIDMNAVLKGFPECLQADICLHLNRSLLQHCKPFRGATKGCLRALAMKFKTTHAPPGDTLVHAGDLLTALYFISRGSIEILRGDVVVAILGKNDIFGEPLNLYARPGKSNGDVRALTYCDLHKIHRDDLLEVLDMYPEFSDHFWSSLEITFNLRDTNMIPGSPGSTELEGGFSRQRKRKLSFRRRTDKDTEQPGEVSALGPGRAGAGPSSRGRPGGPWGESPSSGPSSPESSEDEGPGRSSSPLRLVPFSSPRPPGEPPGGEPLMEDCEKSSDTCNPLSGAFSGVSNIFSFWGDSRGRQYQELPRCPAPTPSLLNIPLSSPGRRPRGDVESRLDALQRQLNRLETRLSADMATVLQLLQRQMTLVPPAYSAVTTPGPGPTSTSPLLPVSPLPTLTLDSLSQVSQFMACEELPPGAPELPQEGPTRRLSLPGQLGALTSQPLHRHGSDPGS

[25] = Mean residence time in Sprague-Dawley rat at 1 mg/kg, iv or 3 mg/kg, po; type: ADME, organism-based; conditions: in vivo
[26] = Terminal half life in Beagle dog at 2 mg/kg, iv or 3 mg/kg, po; type: ADME, organism-based, Canis lupus familiaris; conditions: in vivo, read-out: beta t1/2 (converted)
Rattus norvegicus [27] = test: Toxicity in telemetered Sprague-Dawley rat assessed as effect on heart rate at 20 mg/kg, po; type: organism-based; set-up: dose 20 mg/kg, route oral; conditions: in vivo
[28] = Mutagenic activity in Salmonella Typhimurium by Ames assay; type: toxicity; conditions: salmonella enterica subsp. enterica serovar typhimurium
[29] = Mean residence time in cynomolgus monkey at 1 mg/kg, iv or 5 mg/kg, po; type: ADME, organism-based, Macaca fascicularis; conditions: in vivo
Mus musculus = test: Reversing disease course in experimental autoimmune encephalitis SJL mouse model of multiple sclerosis at 10 mg/kg, po; type: functional, organism-based; set-up: dose 10 mg/kg
[30] = Volume of distribution at steady state in Beagle dog at 2 mg/kg, iv or 3 mg/kg, po; type: ADME, organism-based, Canis lupus familiaris; conditions: in vivo, read-out: Vdss
[31] = molecular target: T1, Sphingosine 1-phosphate receptor 1; test: Induction of human GFP-tagged chimeric S1P1R internalization in human U2Os cells by fluorescence microscopy relative to 1-(4-(6-benzylbenzofuran-2-yl)-3-fluorobenzyl)azetidine-3-carboxylic acid; type: cell-based
[32] = molecular target: T1, Sphingosine 1-phosphate receptor 1; test: Agonist activity at human S1P1R expressed in CHO cells assessed as stimulation of [35S]GTPgammaS binding; type: functional, cell-based
[33] = molecular target: T2, Sphingosine 1-phosphate receptor 3; test: Displacement of [33P]S1P from human S1P3R expressed in CHO cell membranes

SMILES: O=C(O)C1CN(Cc2ccc(-c3cc4cc(OCC5CCCC5)ccc4o3)c(F)c2)C1
EC50 [6]: 454 nM
Efficacy [31]: 71%
EC50 [23]: > 25 µM

SMILES: O=C(O)C1CN(Cc2ccc(-c3cc4cc(Oc5ccccc5)ccc4o3)cc2)C1
EC50 [23]: > 25 µM

SMILES: FC(F)(F)c1cccc(-c2noc(-c3cc(-c4ccccc4)c(C(F)(F)F)s3)n2)c1
IC50 [33]: > 10 µM

SMILES: CCCCOc1ccc2oc(-c3ncc(CN4CC(C(=O)O)C4)s3)cc2c1
EC50 [6]: > 1000 nM
EC50 [23]: > 25 µM

SMILES: O=C(O)C1CN(Cc2ccc(-c3cc4cc(C5CCCCC5)ccc4o3)c(F)c2)C1
EC50 [6]: 48 nM
Efficacy [31]: 100%
EC50 [23]: > 25 µM

SMILES: CC(C)(C)c1ccc(-c2noc(-c3ccc(CN4CC(C(=O)O)C4)cc3)n2)cc1
IC50 [33]: > 10 µM

SMILES: O=C(O)C1CN(Cc2ccc(-c3cc4cc(CCc5ccccc5)ccc4o3)cc2)C1
EC50 [6]: 354 nM
EC50 [23]: > 25 µM

SMILES: O=C(O)C1CN(Cc2ccc(-c3cc4cc(C5CCCCC5)ccc4o3)cc2)C1
EC50 [6]: 460 nM
EC50 [32]: 600 nM
EC50 [23]: > 25 µM

SMILES: CC(C)(C)c1ccc(-c2nnc(-c3ccc(CN4CC(C(=O)O)C4)cc3)o2)cc1
IC50 [33]: > 10 µM

SMILES: CCCCc1ccc2oc(-c3ccc(CN4CC(C(=O)O)C4)cc3)cc2c1
EC50 [6]: 2480 nM
EC50 [32]: 350 nM
EC50 [23]: > 25 µM

SMILES: O=C(O)C1CN(Cc2ccc(-c3cc4cc(C5CCCCC5)ccc4o3)nc2)C1
EC50 [6]: 424 nM
Efficacy [31]: 115%
EC50 [23]: > 25 µM

SMILES: CC(C)Cc1ccc(-c2nc(-c3ccc(CN4CC(C(=O)O)C4)cc3)no2)cc1
IC50 [33]: 12 µM

Further lines, with some results ahead:

half-life [1]: 282 min
Vd [2]: 1 L/kg
Activity [3]: Not Active
Vd [5]: 1.7 L/kg
EC50 [6]: 57 nM
bioavailability [7]: 51%
Selectivity ratio (Homo sapiens): > 1000
bioavailability [10]: 80%
MRT [12]: 9 h
half-life [13]: 726 min
clearance [14]: 2.3 mL/min/kg
clearance [17]: 4.43 mL/min/kg
clearance [18]: 5.15 mL/min/kg
inhibition (INH) [19]: Not Active
half-life [20]: > 90 min
bioavailability [22]: 88%
EC50 [23]: 27 µM
MRT [25]: 12.7 h
half-life [26]: 1270 min
MRT [29]: 3.4 h
Vd [30]: 2.2 L/kg
SMILES: O=C(O)C1CN(Cc2ccc(-c3cc4cc(Cc5ccccc5)ccc4o3)c(F)c2)C1
NOAEL at 96 h [4]: 20 mg/kg
Activity (Rattus norvegicus [8]): Toxic
Activity (Rattus norvegicus [9]): Toxic
inhibition in vivo at 3 mg/kg (Rattus norvegicus [11]): 75%
inhibition in vivo at 1 mg/kg (Rattus norvegicus [15]): 75%
Activity (Rattus norvegicus [16]): Non-toxic
inhibition (Rattus norvegicus [21]): Dose-dependent effect
IC50 [24]: 17 µM
Activity (Rattus norvegicus [27]): Non-toxic
Activity [28]: Non-toxic
inhibition (Mus musculus): Active

EC50 [6]: 653 nM
Efficacy [31]: 117%
EC50 [23]: > 25 µM
SMILES: CCCCOc1ccc2oc(-c3ccc(CN4CC(C(=O)O)C4)cc3OC)cc2c1

EC50 [6]: 253 nM
Efficacy [31]: 100%
EC50 [23]: 3.43 µM
SMILES: O=C(O)C1CN(Cc2ccc(-c3cc4cc(Cc5ccccc5)ccc4o3)cc2F)C1

EC50 [6]: 5030 nM
EC50 [32]: > 1000 nM
EC50 [23]: > 25 µM
SMILES: O=C(O)C1CN(Cc2ccc(-c3cc4cc(-c5cccnc5)ccc4o3)cc2)C1

EC50 [6]: 2070 nM
EC50 [32]: 440 nM
EC50 [23]: > 4.3 µM
SMILES: O=C(O)C1CN(Cc2ccc(-c3cc4cc(Cc5ccccc5)ccc4o3)cc2)C1

EC50 [6]: 620 nM
Selectivity ratio (Homo sapiens): 2
EC50 [23]: 1.44 µM
SMILES: O=C(O)C1CN(Cc2ccc(-c3cc4cc(N5CCCCC5)ccc4o3)cc2)C1

EC50 [6]: 2290 nM
Efficacy [31]: 89%
EC50 [23]: 25 µM
SMILES: CCCCOc1ccc2cc(-c3ccc(CN4CC(C(=O)O)C4)cc3)oc2c1

EC50 [23]: > 7.2 µM
SMILES: CCCCOc1ccc2oc(-c3ccc(CN4CC(C(=O)O)C4)cc3)cc2c1

EC50 [6]: 290 nM
Efficacy [31]: 156%
EC50 [23]: 4.8 µM
SMILES: O=C(O)C1CN(Cc2ccc(-c3cc4cc(OCC5CC5)ccc4o3)c(F)c2)C1

EC50 [6]: 150 nM
EC50 [23]: 1.9 µM
SMILES: CC(C)Cc1ccc2oc(-c3ccc(CN4CC(C(=O)O)C4)cc3)cc2c1

EC50 [6]: 158 nM
Efficacy [31]: 104%
EC50 [23]: 10.3 µM
SMILES: CCCCOc1ccc2oc(-c3ccc(CN4CC(C(=O)O)C4)cc3Cl)cc2c1
